# Experimental data reported in patent publication US10428043B2, “Green oxidation catalytic system” (TRUSTEES OF BOSTON UNIVERSITY, priority 2014, dated 2019).
# Where “and” joins values, the source holds several entries; their conditions need not be identical. Equal entries are not always repeated. Where two headings read alike, the source gives them in different places.
# Experiments:
# [1] = Room temperature O2 reactivity of ferrous complexes followed by UV/vis
# Protocol: The solution was transferred to an anaerobic UV/vis cell and sealed. An initial spectrum was obtained of the ferrous complex, and then the solution was exposed to the air. Spectra were recorded every minute for the first two minutes and then every 5-30 minutes after that for seven hours. The absorbance was monitored at 350 nm to follow formation of the oxidized complex.
# This solution was then transferred to an anaerobic UV/vis cell and sealed. An initial spectrum was obtained of the ferrous complex, and then the solution was exposed to the air. Spectra were collected every minute for the first 30 minutes and then every 5-20 minutes after that for 2 hours. The absorbance was monitored at 315 nm to follow formation of the oxidized complex.
# Solubility = type: physicochemical
# [2] = Cyclic voltammetry, redox potentials; type: physicochemical
# From the text: All reagents and solvents used were purchased from commercial sources and used as received unless otherwise noted. Prior to use, methanol (Pharmco-Aaper) was distilled over magnesium metal, dimethyl sulfoxide (Fisher Scientific) was distilled over calcium hydride, triethylamine was distilled over sodium metal and unstabilized dichloromethane (Fisher Scientific) was distilled over calcium hydride. Ferrocene was purified by sublimation for use as a reference for electrochemical analyses. All manipulations involving ferrous complexes were carried out in an inert atmosphere glovebox (M. Braun, Stratham, N.H.) with distilled and thoroughly degassed solvents. UV/Vis spectra were collected using a Hewlett Packard Spectrometer (8453). IR spectra were collected using a Thermo Nicolet AVATAR 330-FT-IR. Cyclic voltammetry experiments were performed using a Princeton Applied Research model 273 potentiostat with a glassy carbon working electrode, a silver wire reference electrode and a platinum wire counter electrode. Electron Paramagnetic Resonance (EPR) spectra were collected on a Bruker ESP-300E spectrometer operating at 9.460 GHz. NMR spectra were recorded at 25° C. using a Varian spectrometer operating at 400 MHz with all chemical shifts referenced to SiMe4. Iron concentrations were determined using a Varian AA240Z Atomic Absorption Spectrometer.
# Cyclic voltammetry was performed inside an inert atmosphere (N2) box, with degassed DMSO as the solvent and tetra-N-butylammonium hexafluorophosphate as the supporting electrolyte (0.2M). The ferrocenium/ferrocene couple was used as an internal reference; reduction potential values were corrected by assigning the ferrocenium/ferrocene couple to 0.64 V versus NHE (Zanello, P. Inorganic Electrochemistry; The Royal Society of Chemistry: Cambridge, 2003). Chloride titration experiments were performed by collecting CV data after the addition of one and two 50 μL aliquots of 204 mM [NEt4][Cl] to 3.0 mL of 3.4 mM [Fe^II(N2O1py)(Cl)2]^− (concentration determined using flame atomic absorption spectroscopy) and correcting the potential with reference to the ferrocenium/ferrocene couple.
# It should be noted that these redox potentials were determined in the absence of excess halide, and further CV studies will be performed in the presence of excess halide for all derivatives of the N2O1py system.
# [3] = Low-temperature stopped-flow kinetics of adduct complexes with dioxygen; details: −85° C.
# Protocol: Stopped-flow Spectroscopy and Data analysis.
# Kinetic studies of [Fe^II(N2O1)(α-KG)(CH3OH)]^− and [Fe^II(N2O1)(p-X-BF)(CH3OH)]^− adduct complexes with dioxygen. Low-temperature stopped flow studies of this reaction were performed.
# Order dependence analysis.
# The kinetic model was built by starting from simple two- and three-exponential processes.
# Stoichiometry of the equations for the proposed model in FIG. 29: […]
# [4] = vs. NHE, quasi-reversible; Thesis of Tarves 2012; cited from earlier work
# [5] = Catalytic oxidation of methanol to formaldehyde with α-KG and O2 (Nash assay)
# [6] = calculated from redox potentials for the one-electron transfer between iron and dioxygen
# [7] = [24] 1.0 mM, O2 5 mM, benzoate 3.1 mM
# [8] = complex 0.94-1.1 mM, O2 5 mM, methanol
smiles,measurement,setting,value
"CN(CC(=O)[O-])Cc1ccccn1.[Cl-].[Cl-].[Fe+2] [[Fe^II(N2O1py)(Cl)2]^−, [PSH][Fe^II(N2O1py)(Cl)2]]",time for formation of the diferric oxo-bridged product on reaction with O2,[1]; methanol,> 7 h
same,solubility properties compared with the first generation catalyst,Solubility,very similar solubility properties
same,redox potential,[2],188 mV
same,E1/2,"[2]; DMSO, glassy carbon working electrode, absence of excess halide",216 mV
same,Keq,[2]; [6],1.7 × 10^−9
same,ΔG°,[2]; [6],50 kJ
same,ΔE,[2]; no added halide,96 mV
same,E1/2,"[2]; no added halide, in mV",+216
"CN(C)CCN(C)CC(=O)[O-].CO.O=C([O-])C(=O)c1ccccc1.[Fe+2] [compound 24, [Fe^II(N2O1)(p-H-BF)]]",rate of room temperature reactivity with O2 (time),[1],~200 min
same,k′1,"[3]; [24] 0.47 mM, O2 5 mM",8.5 ± 0.2 s⁻¹
same,k′2,"[3]; [24] 0.47 mM, O2 5 mM",170 ± 8 M⁻¹ s⁻¹
same,k′2obs,"[3]; [24] 0.47 mM, O2 5 mM",0.9 ± 0.04 s⁻¹
same,k′3,"[3]; [24] 0.47 mM, O2 5 mM",21 ± 0.06 s⁻¹
same,k′4,"[3]; [24] 0.47 mM, O2 5 mM",0.2 ± 0.01 s⁻¹
same,k′2obs,"[3]; [24] 0.94 mM, O2 5 mM",0.13 ± 0.02 s⁻¹
same,k′1,[3]; [7],0.04 ± 0.01 s⁻¹
same,k′2,[3]; [7],2900 ± 500 M⁻¹ s⁻¹
same,k′3,[3]; [7],0.25 ± 0.05 s⁻¹
same,k′4obs,[3]; [7],1.1 ± 0.2 s⁻¹
same,k′1,"[3]; [24] 1.34 mM, O2 2.5 mM",7 ± 1.2 s⁻¹
same,k′2obs,"[3]; [24] 1.34 mM, O2 2.5 mM",0.2 ± 0.1 s⁻¹
same,k′3,"[3]; [24] 1.34 mM, O2 2.5 mM",14 ± 6 s⁻¹
same,k′4,"[3]; [24] 1.34 mM, O2 2.5 mM",0.2 ± 0.03 s⁻¹
same,k′1,"[3]; [24] 1.34 mM, O2 3.5 mM",9 ± 1.1 s⁻¹
same,k′2obs,"[3]; [24] 1.34 mM, O2 3.5 mM",0.5 ± 0.2 s⁻¹
same,k′3,"[3]; [24] 1.34 mM, O2 3.5 mM",16 ± 4 s⁻¹
same,k′4,"[3]; [24] 1.34 mM, O2 3.5 mM",0.3 ± 0.09 s⁻¹
same,k′1,"[3]; [24] 1.34 mM, O2 5 mM",6.1 ± 0.9 s⁻¹ and 8 ± 0.9 s⁻¹
same,k′2,"[3]; [24] 1.34 mM, O2 5 mM",150 ± 5 M⁻¹ s⁻¹
same,k′3,"[3]; [24] 1.34 mM, O2 5 mM",20 ± 1.1 s⁻¹ and 21 ± 5 s⁻¹
same,k′1,[3]; [8],7.8 ± 1.0 s⁻¹
same,k′3,[3]; [8],20 ± 0.9 s⁻¹
same,k′4 (k′4obs),[3]; [8],0.4 ± 0.03 s⁻¹
same,E1/2,[4],60 mV
same,TON predicted from the line of best fit in FIG. 2 for the α-KG adduct complex,[5]; iron complex 0.47 mM,0.9
same,TON predicted from the line of best fit in FIG. 2 for the α-KG adduct complex,[5]; iron complex 0.94 mM,0.6
same,TON predicted from the line of best fit in FIG. 2 for the α-KG adduct complex,[5]; iron complex 1.34 mM,0.3
